Experimental data from patent US6346544B2, “Desmethyl tocopherols for protecting cardiovascular tissue” (Oklahoma Medical Research Foundation, priority 2000, dated 2002).

Assays:
αKGDH [1] = assay: αKGDH protection against SIN-1 nitrative stress in isolated mitochondria in vitro; format: biochemical, rat; conditions: 400 μM SIN-1, one hour
Method: FIG. 3 is a graph showing rat brain mitochondria exposed to 0.4 mM SIN-1 for 1 H after addition of tocopherol. (•)α-tocopherol; (▪)γ-tocopherol. The scale bars labeled [α]norm and [Y]norm indicate the normal endogenous quantities of α-tocopherol and γ-tocopherol, respectively, in human brain.
αKGDH is a rate-limiting enzyme of mitochondrial energy production which is diminished in conditions of vascular ischemia (53-58); augmentation of the enzyme with α-ketoglutarate has been found beneficial and α-ketoglutarate is now included as a component in cardioplegia fluid to improve recovery after heart surgery (59). We undertook to determine whether γT protects αKGDH against nitrative stress in vitro. Mitochondria were isolated from adult rat brain then sonicated briefly in the presence of either αT or γT, or an ethanol vehicle. Mitochondria were then exposed to SIN-1, which generates NO and superoxide simultaneously at a known rate (7). Combination of NO and superoxide yields ONOO^−. in situ (discussed above).

αKGDH [2] = assay: heart αKGDH activity after tocopherol supplementation, with or without LPS challenge; format: in vivo, rat; conditions: animals not subjected to LPS stress; 15 mg tocopherol I.P. over 30 days
Method: Rats were injected with 15 mg of tocopherol over the first 1 month of life; specific groups were then challenged with a septic dose of LPS and heart αKGDH activity was assayed 24 H later. *p<0.1 relative to vehicle; †p<0.05 relative to vehicle. N=5/group.
Rat pups were injected intraperitoneally (I.P.) with αT or γT in an olive oil vehicle every other day for 30 days beginning 2 days after birth; control animals received vehicle only. […] A total of 15 mg tocopherol was delivered to each animal over the 30 day period; animal weight at the end of the period was approximately 90 g for all three groups. One half of each animal group was injected with a septic dose of LPS (2.5 mg/kg, I.P). After 24 H, animals were killed and organs collected. αKGDH was assayed in heart tissue and tocopherols were measured by HPLC-ECD/PDA.

[3] = rat, in vivo
Method: Rat pups were injected intraperitoneally (I.P.) with αT or γT in an olive oil vehicle every other day for 30 days beginning 2 days after birth; control animals received vehicle only. Olive oil was chosen as a vehicle because of the low tocopherol content in this particular vegetable oil. […] One half of each animal group was injected with a septic dose of LPS (2.5 mg/kg, I.P). After 24 H, animals were killed and organs collected. αKGDH was assayed in heart tissue and tocopherols were measured by HPLC-ECD/PDA.

[4] = plasma concentrations of tocopherols and 5-NO2-γ-tocopherol in volunteers; format: in vivo, human; conditions: mean ± SEM
Source text: Smoking is recognized as a major contributing factor to heart disease and γ-T reportedly decreases more than α-T in smokers. Hypertension is also a strong risk factor for heart disease. […] Seven subjects indicated a chronic hypertensive condition. As outlined in Table I, γ-tocopherol tended to decrease in hypertensive subjects while nitration products tended to increase in both smokers and hypertensive subjects. This was the trend regardless of whether the tocopherol concentrations were normalized to plasma triglycerides (Table I).

platelets [5] = assay: platelet aggregation in vitro (PRP, aggregometer); format: cell-based, human; conditions: 500 μM α-tocopherol or 50 μM γ-tocopherol, 1 H preincubation
Method: […] inhibits platelet aggregation in vitro and in vivo, apparently through antagonism of protein kinase C (PKC) (60-63). Concentrations of αT necessary to inhibit aggregation in vitro are on the order of 500 μM (60-63), or approximately 10-fold higher than achieved in vivo. The concentration difference between in vitro and in vivo efficacy has been rationalized on the basis of incomplete tocopherol incorporation into membranes during in vitro incubation (63). Nonetheless, subjects supplemented with oral αT have diminished platelet aggregation (63). We therefore sought to investigate the ability of γ-tocopherol to inhibit platelet aggregation. PRP was obtained from two volunteers. Platelets were stimulated to aggregate with ADP, thrombin receptor activating peptide (TRAP) or the PKC agonist phorbol myristyl acetate (PMA) and aggregation was measured using a 4-channel clinical aggregometer. Specific platelet samples were preincubated with vehicle, αT, γT or 5-NO2-γ-tocopherol for 1 H prior to stimulation. Tocopherol concentrations were set at 10-fold excess to average PRP levels based on the precedent of previous in vitro aggregation experiments that used αT as an inhibitor (60-63).

[6] = tested on: ECV304 human endothelial cells; conditions: 10 μM α-T, 10 μM γ-T or 5 μM of each; 19 hours preincubation; 5 mM SIN-1; 24 hours
Method: Cultured ECV304 human endothelial cells were exposed to SIN-1 in the presence of 10 μM α-T, 10 μM γ-T or 5 μM of each (FIG. 5). Tocopherols were incubated with the cells for 19 hours prior to addition of SIN-1. Viability was assayed 24 hours later using a standard tetrazolium (MTT) reduction assay.

platelets [7] = conditions: cited from earlier work
[8] = 100 mg/kg/day for 10 days; 29% FeCl3 patch; cited from earlier work
[9] = own supplementation, 100 mg/kg/day, 10 days; cited from earlier work
[10] = associated with a 40% increase in plasma αT; cited from earlier work
[11] = upper vs lowest quintile of αT consumption, 87,425 nurses, 8 years; cited from earlier work
[12] = median intake 419 vs. 6.4 IU/day, 39,910 men; cited from earlier work
[13] = 35,000 postmenopausal women, 7 years; supplements alone or with dietary intake; cited from earlier work
[14] = 400-800 IU/day, 18 months, cited from earlier work
[15] = 50 mg/kg supplement, 5.3 years follow-up; cited from earlier work
[16] = cited from earlier work
[17] = 400 IU/day natural αT, 4.5 years, 9541 subjects; cited from earlier work
[18] = chronic αT supplementation; cited from earlier work

Structure (SMILES): Cc1c(C)c2c(c(C)c1O)CC[C@@](C)(CCC[C@H](C)CCC[C@H](C)CCCC(C)C)O2 [α-tocopherol, reference compound]
- concentration offering as much αKGDH protection as 50-100 nM γT (αKGDH [1]): 1 to 10 µM
- tocopherol concentration of maximal αKGDH protection (αKGDH [1]; rat brain mitochondria): 1 µM
- increase of mean heart αKGDH activity (αKGDH [2]): 40%
- heart tissue tocopherol concentration, controls [3]: 23±12 ng/mg protein
- plasma concentration ([4]; hypertensives, N = 7): 23.1 ± 12.2 μg/mL plasma
- plasma concentration normalized to triglyceride ([4]; hypertensives, N = 7): 21.9 ± 5.9 μg/mg triglyceride
- plasma concentration ([4]; population, N = 54): 18.3 ± 2.6 μg/mL plasma
- plasma concentration normalized to triglyceride ([4]; population, N = 54): 34.2 ± 14.2 μg/mg triglyceride
- plasma concentration ([4]; smokers, N = 7): 24.9 ± 9.2 μg/mL plasma
- plasma concentration normalized to triglyceride ([4]; smokers, N = 7): 21.5 ± 4.5 μg/mg triglyceride
- Platelet Aggregation (% maximum) (platelets [5]; ADP 20 μM, Subject 1): 85 % maximum
- Platelet Aggregation (% maximum) (platelets [5]; ADP 20 μM, Subject 2): 72 % maximum
- Platelet Aggregation (% maximum) (platelets [5]; PMA 200 nM, Subject 1): 74 % maximum
- Platelet Aggregation (% maximum) (platelets [5]; PMA 200 nM, Subject 2): 34 % maximum
- Platelet Aggregation (% maximum) (platelets [5]; TRAP 20 μM, Subject 1): 44 % maximum
- Platelet Aggregation (% maximum) (platelets [5]; TRAP 20 μM, Subject 2): 75 % maximum
- effect on SIN-1 toxicity (MTT viability) [6]: no apparent effect
- concentration necessary to inhibit aggregation in vitro (platelets [7]): ~500 µM
- delay/increase of time to occlusive thrombus [8]: 25%
- increase of plasma level above baseline [9]: 2 fold
- lower mortality rate (ischemic heart disease) [10]: 84%
- diminished risk of coronary disease [11]: 34%
- diminished risk of CAD [12]: 39%
- benefit of supplements on cardiovascular death [13]: no benefit
- reduction in nonfatal myocardial infarction ([14]; 2002 male smokers with CAD): 77%
- increase in all-cause mortality [14]: 29%
- effect on MI or mortality [15]: no effect
- increase of plasma αT ([16]; 50 IU/day supplementation): 50%
- effect on death from hemorrhagic stroke ([16]; 50 IU/day, 5-8 years): increases death from hemorrhagic stroke
- effect on total mortality of smokers ([16]; 50 IU/day, 5-8 years): does not decrease total mortality
- effect on primary or secondary cardiovascular outcomes or death [17]: no effect
- increase of plasma levels of αT [18]: 300-400%
